Experimental data from patent publication US10981932B2, “Macrocyclic indole derivatives” (Bayer Aktiengesellschaft, priority 2016, dated 2021).
Read-outs that look alike come from different tables or passages of the source.

What was measured:
MCL-1 = MCL-1 (Homo sapiens, UniProt Q07820); assay: Protein-protein interaction assay MCL-1/Noxa BH3 peptide (MCL-1 assay), TR-FRET; assay type: binding; conditions: MBP-MCL-1 / Noxa BH3-derived peptide, median
Outline: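 Displacement of the biotinylated Noxa BH3 peptide from MBP-tagged human MCL-1 (1 nM) is detected by time-resolved FRET. Compounds are tested in duplicate across eleven concentrations up to 20 μM, incubated 1 h at 22 °C and overnight at 4 °C, and IC50 is fitted with a four-parameter equation.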

SUDHL5 [1] = assay: Induction of caspase-3/7 activity (Caspase-Glo 3/7), SUDHL5; assay type: cell-based; conditions: Homo sapiens, SU-DHL-5, 3 h, caspase-3/7 induction, SUDHL5 cells, 3 h treatment; median
Outline: (§1)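 Caspase-Glo 3/7 luminescence, 3 h compound exposure, 37 °C, humidified. Minus medium-only blank. EC50 fit: C0=1, plateau = reference max induction.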

SUDHL10 [2] = assay: Induction of caspase-3/7 activity (Caspase-Glo 3/7), SUDHL10; assay type: cell-based; conditions: Homo sapiens, SU-DHL10, 3 h, caspase-3/7 induction, SUDHL10 cells, 3 h treatment; median
Outline: as §1

SUDHL5 [3] = assay: Anti-proliferative effect (CellTiter-Glo, 72 h), SUDHL5; assay type: cell-based; conditions: Homo sapiens, SU-DHL-5, 72 h, SUDHL5 cells, antiproliferation, 72 h incubation, median, read-out: Antiproli SUDHL5 [M] (median)
Outline: (§2)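 Viable cells quantified with CellTiter-Glo after 72 h at 37 °C; rim wells excluded; day 0 plate as baseline.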

SUDHL10 [4] = assay: Anti-proliferative effect (CellTiter-Glo, 72 h), SUDHL10; assay type: cell-based; conditions: Homo sapiens, SU-DHL10, 72 h, SUDHL10 cells, antiproliferation, 72 h incubation, median, read-out: Antiproli SUDHL10 [M] (median)
Outline: as §2

OPM2 = assay: Anti-proliferative effect (CellTiter-Glo, 72 h), OPM2; assay type: cell-based; conditions: Homo sapiens, OPM-2, 72 h, OPM2 cells, median, read-out: IC50 antiproliferation assay OPM2 [M] (median)
Outline: as §2

A2780 = assay: Anti-proliferative effect (CellTiter-Glo, 72 h), A2780; assay type: cell-based; conditions: A2780 cells, median, read-out: IC50 antiproliferation assay A2780 [M] (median)
Outline: as §2

SUDHL5 [5] = assay: Induction of cytotoxicity (CellTiter-Glo, 5 h), SUDHL5; conditions: Homo sapiens, SU-DHL-5, 5 h, read-out: Cytotox SUDHL5 [M] (median), SUDHL5 cells, cytotoxicity induction, CellTiter-Glo, 5 h incubation, median
SUDHL10 [6] = assay: Induction of cytotoxicity (CellTiter-Glo, 5 h), SUDHL10; conditions: Homo sapiens, SU-DHL10, 5 h, read-out: Cytotox SUDHL10 [M] (median), SUDHL10 cells, cytotoxicity induction, CellTiter-Glo, 5 h incubation, median

MCL-1, sequence (Q07820 whole entry): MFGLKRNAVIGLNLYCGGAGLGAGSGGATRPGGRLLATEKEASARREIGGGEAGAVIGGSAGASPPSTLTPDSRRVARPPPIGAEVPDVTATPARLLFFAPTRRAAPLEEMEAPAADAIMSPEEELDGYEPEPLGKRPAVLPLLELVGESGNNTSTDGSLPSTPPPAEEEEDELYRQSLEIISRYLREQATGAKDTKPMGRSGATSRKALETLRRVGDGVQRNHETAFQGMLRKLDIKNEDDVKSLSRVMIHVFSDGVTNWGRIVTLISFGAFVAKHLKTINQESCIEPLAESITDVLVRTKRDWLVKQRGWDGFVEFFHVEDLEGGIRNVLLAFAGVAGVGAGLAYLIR

Row | IC50 (MCL-1) [nM] | EC50 (SUDHL5 [1]) [µM] | EC50 (SUDHL10 [2]) [µM] | IC50 (SUDHL5 [3]) [M] | IC50 (SUDHL10 [4]) [M] | IC50 (A2780; Homo sapiens, A2780, 72 h) [M] | IC50 (A2780) [M] | Structure (SMILES) | IC50 (OPM2) [M] | IC50 (SUDHL5 [5]) [M] | IC50 (SUDHL10 [6]) [M]
1 | 4.53 | 4.43 | 9.64 | 2.32e-06 | 7.88e-06 | > 3.3e-05 | – | Cc1nn(C)c2c1-c1cccc3c(CCCOc4cccc5cc(F)ccc45)c(C(=O)O)n(c13)CCCCOC2 (racemic) [Example 018, (rac)-7-{3-[(6-fluoronaphthalen-1-yl)oxy]propyl}-1,3-dimethyl-1,10,11,12,13,15-hexahydropyrazolo[4′,3′:9,10][1,6]oxazacycloundecino[8,7,6-hi]indole-8-carboxylic Acid] | 9.67e-06 | 3.77e-06 | 9.04e-06
2 | 11 | 13.4 | > 33 | 2.4e-05 | 5.25e-06 | > 3.3e-05 | 2.52e-05 | Cc1nn(C)c2c1-c1cccc3c(CCCOc4ccc(F)c5ccccc45)c(C(=O)O)n(c13)CCCCOC2 (racemic) [Example 021, (rac)-7-{3-[(4-fluoronaphthalen-1-yl)oxy]propyl}-1,3-dimethyl-1,10,11,12,13,15-hexahydropyrazolo[4′,3′:9,10][1,6]oxazacycloundecino[8,7,6-hi]indole-8-carboxylic Acid] | > 3.3e-05 | 1.82e-05 | > 3.3e-05
3 | 28 | 29.9 | > 33 | 2.15e-06 | 1.3e-05 | 7.41e-06 | – | COCCn1nc2c(c1C)-c1cccc3c(CCCOc4cccc5ccccc45)c(C(=O)O)n(c13)CCCN(C)C2 (racemic) [Example 052, (rac)-10-(2-methoxyethyl)-7,11-dimethyl-1-[3-(naphthalen-1-yloxy)propyl]-4,5,6,7,8,10-hexahydropyrazolo[3′,4′:7,8][1,5]diazecino[9,10,1-hi]indole-2-carboxylic Acid] | 3.07e-05 | 2.68e-05 | 2.97e-05
4 | 3.41 | 2.51 | 5.67 | 1.47e-06 | 7.88e-06 | > 3.3e-05 | – | Cc1c2c(nn1CCN1CCOCC1)COCCCCn1c(C(=O)O)c(CCCOc3cccc4ccccc34)c3cccc-2c31 (racemic) [Example 053, (rac)-3-methyl-2-[2-(morpholin-4-yl)ethyl]-7-[3-(naphthalen-1-yloxy)propyl]-2,10,11,12,13,15-hexahydropyrazolo[4′,3′:9,10][1,6]oxazacycloundecino[8,7,6-hi]indole-8-carboxylic Acid] | 1.11e-05 | 3e-06 | 7.75e-06
5 | 23.9 | 15.9 | 27.7 | 6.96e-06 | 1.99e-05 | 2.91e-05 | – | Cc1c2c(nn1CCN1CCOCC1)CN(C)CCCn1c(C(=O)O)c(CCCOc3cccc4ccccc34)c3cccc-2c31 (racemic) [Example 059, (rac)-7,11-dimethyl-10-[2-(morpholin-4-yl)ethyl]-1-[3-(naphthalen-1-yloxy)propyl]-4,5,67,8,10-hexahydropyrazolo[3′,4′:7,8][1,5]diazecino[9,10,1-hi]indole-2-carboxylic Acid] | 2.52e-05 | 2.54e-05 | 1.9e-05
6 | 13.1 | 5.9 | 18.1 | 4.17e-06 | 4.49e-06 | 2.26e-05 | – | Cc1c2c(nn1C)COC/C=C\Cn1c(C(=O)O)c(CCCOc3cccc4ccccc34)c3cccc-2c31 (racemic) [Example 062, (rac)-(11Z)-2,3-dimethyl-7-[3-(naphthalen-1-yloxy)propyl]-2,10,13,15-tetrahydropyrazolo[4′,3′:9,10][1,6]oxazacycloundecino[8,7,6-hi]indole-8-carboxylic Acid] | 1.67e-05 | 6.67e-06 | 2.43e-05
7 | 10.6 | 7.71 | 16.5 | 3.98e-06 | 5.35e-06 | 2.02e-05 | – | Cc1c2c(nn1C)COCCCn1c(C(=O)O)c(CCCOc3cccc4ccccc34)c3cccc-2c31 (racemic) [Example 063, (rac)-10,11-dimethyl-1-[3-(naphthalen-1-yloxy)propyl]-5,6,8,10-tetrahydro-4H-pyrazolo[4′,3′:8,9][1,5]oxazecino[7,6,5-hi]indole-2-carboxylic Acid] | 1.36e-05 | 7.73e-06 | 1.16e-05
8 | 6.52 | 5.4 | 8.62 | 2e-06 | 8.58e-06 | 1.87e-05 | – | Cc1ccc2c(CCCOc3cccc4ccccc34)c(C(=O)O)n3c2c1-c1c(nn(C)c1C)COC/C=C\C3 (racemic) [Example 070, (rac)-(11Z)-2,3,4-trimethyl-7-[3-(naphthalen-1-yloxy)propyl]-2,10,13,15-tetrahydropyrazolo[4′,3′:9,10][1,6]oxazacycloundecino[8,7,6-hi]indole-8-carboxylic Acid] | 1.34e-05 | 4.28e-06 | 9.59e-06
9 | 4.12 | 5.04 | 11.1 | 6.23e-06 | 2.59e-06 | 1.89e-05 | – | COCCn1nc2c(c1C)-c1cccc3c(CCCOc4cccc5ccccc45)c(C(=O)O)n(c13)C/C=C\COC2 (racemic) [Example 071, (rac)-(11Z)-2-(2-methoxyethyl)-3-methyl-7-[3-(naphthalen-1-yloxy)propyl]-2,10,13,15-tetrahydropyrazolo[4′,3′:9,10][1,6]oxazacycloundecino[8,7,6-hi]indole-8-carboxylic Acid] | 1.3e-05 | 7.45e-06 | 1.76e-05
10 | 3.4 | 4.54 | 4.91 | 1.11e-06 | 5.65e-06 | 9.51e-06 | – | Cc1ccc2c(CCCOc3cccc4ccccc34)c(C(=O)O)n3c2c1-c1c(nn(C)c1C)CN(C)CCC3 (racemic) [Example 072, (rac)-7,10,11,12-tetramethyl-1-[3-(naphthalen-1-yloxy)propyl]-4,5,6,7,8,10-hexahydropyrazolo[3′,4′:7,8][1,5]diazecino[9,10,1-hi]indole-2-carboxylic Acid] | 8.23e-06 | 3.43e-06 | 6.12e-06
11 | 1.71 | 3.25 | 6.36 | 3.21e-06 | 2.63e-06 | 1.97e-05 | – | Cc1ccc2c(CCCOc3cccc4ccccc34)c(C(=O)O)n3c2c1-c1c(nn(C)c1C)COCCCC3 (racemic) [Example 075, (rac)-2,3,4-trimethyl-7-[3-(naphthalen-1-yloxy)propyl]-2,10,11,12,13,15-hexahydropyrazolo[4′,3′:9,10][1,6]oxazacycloundecino[8,7,6-hi]indole-8-carboxylic Acid] | 1.1e-05 | 3.66e-06 | 8.23e-06
12 | 15 | 7.21 | 19 | 9.61e-06 | 9.62e-06 | 1.74e-05 | – | CCn1nc2c(c1C1CC1)-c1cccc3c(CCCOc4cccc5ccccc45)c(C(=O)O)n(c13)CCCCOC2 (racemic) [Example 081, (rac)-3-Cyclopropyl-2-ethyl-7-[3-(naphthalen-1-yloxy)propyl]-2,10,11,12,13,15-hexahydropyrazolo[4′3′:9,10][1,6]oxazacycloundecino[8,7,6-hi]indole-8-carboxylic Acid] | 1.44e-05 | 7.06e-06 | 2.26e-05
13 | 3.09 | 7.55 | 14.9 | 7.19e-06 | 3.87e-06 | 1.77e-05 | – | COCCn1nc2c(c1C1CC1)-c1cccc3c(CCCOc4cccc5ccccc45)c(C(=O)O)n(c13)CCCCOC2 (racemic) [Example 084, (rac)-3-Cycopropyl-2-(2-methoxyethyl)-7-[3-(naphthalen-1-yloxy)propyl]-2,10,11,12,13,15-hexahydropyrazolo[4′,3′:9,10][1,6]oxazacycloundecino[8,7,6-hi]indole-8-carboxylic Acid] | 2.67e-05 | 6.6e-06 | 2.06e-05
